Experimental findings from the METLIN SMRT retention time set (Domingo-Almenara et al. 2019) are described below.

The nature of this data set: gradient 5% acetonitrile 3 min, to 50% in 2 min, to 85% in 15 min, held 3 min, 100 µL/min. The following applies: column: Zorbax Extend-C18 2.1 x 50 mm; eluents: water / acetonitrile, 0.1% formic acid. The method, boiled down: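 Each retention time is based on an adduct peak selected computationally and verified by manual inspection. Measurements used HPLC–quadrupole time-of-flight mass spectrometry in positive and negative ionization mode on mixtures of ~100 pure standards. Chromatography ran on a Zorbax Extend-C18 column (2.1 × 50 mm, 1.8 μm) at 100 μL/min with water and acetonitrile, each containing 0.1% formic acid, and dead and dwell volumes of 40 μL and 900 μL.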
`CCOC(=O)CNC(=O)N1CCN(Cc2nc3cc(-c4ccccc4)ccc3o2)CC1` had an RP-LC retention time of 601 s.

With `CCn1cc(CCNC(=O)Nc2cccc(Cl)c2)c2cccnc21`, the RP-LC retention time was 788 s.

`Cc1csc(-c2cc(S(=O)(=O)Nc3ccc(S(N)(=O)=O)cc3)c(C)n2C)n1`: the RP-LC retention time amounted to 749 s. With `Cc1noc([C@@H]2CC(F)(F)CN2C(=O)CCc2c(C)noc2C)n1`, the RP-LC retention time is 718 s. In turn, `COc1ccc(Cl)cc1NC(=O)N1CCC2(CC1)NC(=O)c1ccccc1O2` returned an RP-LC retention time of 1190 s. Compound `O=C1OC(C(=O)Nc2ccc(F)cc2)Cc2ccc(Cl)cc21` (stereo not given) yielded an RP-LC retention time of 858 s. As to `CC(=O)c1cccc(NC(=O)N(c2ccccc2)c2ccccc2)c1`, the RP-LC retention time is 860 s. The compound `Cc1ccc(CNC(=O)C2CCN(c3cnc(N4CCCC4)nc3)CC2)cc1` registered an RP-LC retention time of 680 s.

Compound `Cn1c(=O)c2cc(C(=O)Nc3ccc(F)c(Cl)c3)sc2n(C)c1=O` registered an RP-LC retention time of 847 s. For the compound `CCCCCn1c(=O)c2ccccc2n(Cc2nc(-c3ccc(C)cc3)no2)c1=O`, the RP-LC retention time came out at 1350 s.

`FC1(c2nc(Cc3ccccc3)no2)CCN(Cc2ccsc2)CC1` showed an RP-LC retention time of 708 s. The compound `CCOc1ccc(NC(=O)Cn2nc3c(Oc4ccccc4)nccn3c2=O)cc1` registered an RP-LC retention time of 822 s. `Cc1cccc(-c2nn3c(N4CCN(c5ccccn5)CC4)cc(C)nc3c2C)c1` gave an RP-LC retention time of 648 s.

Take `Cn1c(C2CCN(C(=O)c3cc4c(s3)CCCC4)C2)nc2cccnc21` (stereo not given): the RP-LC retention time came out at 797 s. `CN(C)S(=O)(=O)c1ccc2c(c1)N(CC(=O)NCCN1CCCC1)C(=O)C1CCCCN21` (stereo not given) yielded an RP-LC retention time of 627 s. Take `CCNC(=O)N1CCN(c2ccc(-c3noc(C4CC(=O)N(c5ccc(C)c(C)c5)C4)n3)cc2)CC1` (stereo not given): the RP-LC retention time was determined as 885 s. `Cc1ccccc1C(=O)CC1(O)C(=O)Nc2ccccc21` (stereo not given): the RP-LC retention time was determined as 709 s. In the case of `O=C1Nc2cc(C(=O)N3CCN(C(=O)c4ccco4)CC3)ccc2N2CCCCC12` (stereo not given) it was 677 s. In the case of `Cc1ccc(C(C)NC(=O)C2CCN(c3cnc4nccnc4c3)CC2)c(C)c1` (stereo not given) it was 741 s; in that of `CC1CCC(NC(=O)c2cc3sc(Cl)cc3n2C)CC1` (stereo not given), 1230 s; in that of `CCOc1ccc(CNC(=O)c2c(C)sc3ccn(C)c(=O)c23)cc1`, 786 s.

The compound `O=C(Nc1ccc(F)cc1F)N1CCN(Cc2nc3cc(-c4ccccc4)ccc3o2)CC1` yielded an RP-LC retention time of 869 s.

`O=C1NC2(CCN(C(=O)Nc3ccccc3)CC2)Oc2ccccc21` displayed an RP-LC retention time of 721 s. In the case of `Cc1nnc(-c2cccn2CC(=O)NCc2cccc(Br)c2)o1` it was 767 s.

In turn, `Cc1noc(-c2cc(=O)n(CC(=O)NCc3ccccc3Cl)c3ccccc23)n1` came in with an RP-LC retention time of 866 s.

Turning to `CN(C)C(=O)c1n[nH]c2c1CN(C(=O)c1ccccc1F)CC2`, the RP-LC retention time was determined as 618 s. Regarding `COc1ccc(NC2=C(c3ccccc3)C(=O)N(Cc3ccccc3)C2=O)cc1`, the RP-LC retention time worked out at 1140 s. In turn, `O=C(CCC1CCN(S(=O)(=O)c2ccccc2F)CC1)NC1CCS(=O)(=O)C1` (stereo not given) returned an RP-LC retention time of 685 s. `CC(C)c1nnc(-c2cccnc2N2CCN(C(=O)CC3CCCC3)CC2)o1` yielded an RP-LC retention time of 872 s. In turn, `CN1CCN(CCNC(=O)C2CCCN(c3nc4ccccc4n(Cc4ccccc4)c3=O)C2)CC1` (stereo not given) yielded an RP-LC retention time of 662 s. On to `O=C(CCNc1c(-c2cccc(F)c2)nc2cnccn12)N1CCOCC1`, for which the RP-LC retention time stood at 630 s. In turn, `Cc1ccc(C(=O)N2CCCCCCN(C)C(=O)[C@@H]3CCC[C@@H]32)s1` returned an RP-LC retention time of 912 s. The compound `CC(C)CN1CCN(C(=O)c2cn(-c3ccc(-c4nc(C(C)(C)C)no4)cn3)cn2)CC1` came in with an RP-LC retention time of 699 s.

Take `CCCn1c2ccccc2c2nnc(SCC(=O)Nc3nc(-c4ccccc4)cs3)nc21`: the RP-LC retention time is 1080 s. The compound `O=C(c1nnc(-c2ccc(S(=O)(=O)N3CCOCC3)cc2)o1)N1CCC(Cc2ccccc2)CC1` returned an RP-LC retention time of 1080 s. In turn, `O=C(NCC(=O)N1CCN(c2ccccn2)CC1)c1cncc(Br)c1` had an RP-LC retention time of 576 s.

For the compound `Cc1cc(C(=O)Nc2ccc3c(c2)OCCO3)no1`, the RP-LC retention time came out at 681 s. Consider `Cn1c(=O)n(C)c2cc(S(=O)(=O)NCC(=O)O)ccc21`, for which the RP-LC retention time worked out at 566 s.

In turn, `CC(CCc1ccco1)NC(=O)c1nnn(-c2ccccc2)c1-c1ccccn1` (stereo not given) displayed an RP-LC retention time of 862 s.

Regarding `CCN1c2cc(F)ccc2C(=O)NC12CCN(C(=O)c1ccc(OC)c(OC)c1)CC2`, the RP-LC retention time was found to be 740 s.

The compound `CC(C)(C)n1cc(C(=O)c2ccccc2)cc1-c1ccccc1` showed an RP-LC retention time of 1350 s. As for `CC(C)c1nnc2n1CCN(C(=O)CC1CCCCC1)C2`, the RP-LC retention time was determined as 699 s. `COc1cc(NC(=O)Cn2nc3n(c2=O)CCCCC3)cc(OC)c1OC` showed an RP-LC retention time of 659 s. In the case of `O=C(c1cc(C2CC2)[nH]n1)N1CCN(c2ccc(Cl)cc2)CC1`, the RP-LC retention time worked out at 837 s.

Consider `COCCNC(=O)c1cc2c(s1)CCN(C(C)=O)C2`, for which the RP-LC retention time came to 588 s. `O=C(NCc1cccc(C(F)(F)F)c1)c1csc(C(=O)NC2CCCC2)n1` had an RP-LC retention time of 1000 s.

Consider `CCN1C(=O)COc2ccc(-c3csc(NC(=O)c4cc(OC)cc(OC)c4)n3)cc21`, for which the RP-LC retention time is 1050 s. On to `Cn1c(-c2ccccc2)nn(CCNC(=O)C2COc3ccccc3O2)c1=O` (stereo not given), for which the RP-LC retention time turned out to be 702 s. `COC(=O)c1c(NCc2ccc(F)cc2F)c2cc(F)ccc2[nH]c1=O`: the RP-LC retention time was 769 s. Consider `O=C(CCC1CCCC1)NC1CCN(c2ccc(=O)[nH]n2)C1` (stereo not given), for which the RP-LC retention time stood at 649 s.

`COCc1cc(=O)n(CC(=O)Nc2ccccc2)c(N2CCOCC2)n1` had an RP-LC retention time of 767 s. For `O=C(NCCCn1nc(-c2ccc(F)cc2)ccc1=O)c1cccc(-n2cnnn2)c1`, the RP-LC retention time came out at 683 s. `O=C(CSc1ncc(CO)n1CC(=O)NC1CC1)Nc1ccc(F)cc1F` yielded an RP-LC retention time of 565 s. On to `Cc1ccc2c(c1)N(S(C)(=O)=O)CCC(C(=O)Nc1ccccc1C)O2` (stereo not given), for which the RP-LC retention time amounted to 894 s. In the case of `CC(C)c1ccc(-c2noc(N3CCC(C(=O)N4CCCCCC4)CC3)n2)cc1` it was 1180 s; in that of `Brc1ccc(Nc2nc(-c3ccc4c(c3)OCO4)cs2)nc1`, 1150 s; in that of `CC(C)(C)CC(=O)Nc1cnc(-c2cccnc2)nc1`, 665 s. In the case of `CCOc1ccccc1NC(=O)N1CCN(c2cc(C)nc(N3CCCC3)n2)CC1` it was 692 s; in that of `Cc1nc2ccccc2c(=O)n1Cc1noc(-c2ccc3c(c2)OCO3)n1`, 831 s; in that of `Cc1ccc(NC(=O)Cn2nc3cc(C)nc(N4CCCC4)n3c2=O)c(C)c1`, 791 s. In the case of `COc1ccc(NC(=O)CSc2nc3ccccc3nc2C)cc1` it was 802 s.

As for `CC(C)N1C(=O)c2cccnc2Sc2cc(NC(=O)C3CCC3)ccc21`, the RP-LC retention time was 798 s.

Consider `CCC(Sc1nc2cc(OC)c(OC)cc2c2nc(C)nn12)C(=O)NCc1ccco1` (stereo not given), for which the RP-LC retention time was determined as 746 s. With `CCc1cccc2cc([C@@H](O)CNC(C)(C)C)oc12`, the RP-LC retention time was 737 s. `CC(C)n1nccc1-c1nnc(NC(=O)C2CC(=O)N(c3ccc(F)cc3)C2)o1` (stereo not given) came in with an RP-LC retention time of 685 s. In the case of `COc1ccc(NC(=O)C2CCN(S(=O)(=O)c3ccc4[nH]c5c(c4c3)CCCCC5)CC2)cc1` it was 1040 s. In the case of `CCc1cccc(NS(=O)(=O)c2cn(CC)c3ncccc23)c1` it was 937 s; in that of `Cn1c(=O)n([C@H]2CCN(C(=O)C3(c4ccccc4)CC3)C2)c2ncccc21`, 733 s. Compound `COCCNC(=O)c1csc(N2CCN(c3ccc(F)cc3)CC2)n1` came in with an RP-LC retention time of 869 s. Compound `CCOc1ccc(C(=O)NC2CCN(c3cc(-c4cccs4)[nH]n3)C2)cc1OCC` (stereo not given) showed an RP-LC retention time of 755 s. The compound `Cc1ccc2nc(C(=O)NCc3ccc(F)cc3F)cn2c1` had an RP-LC retention time of 668 s. Take `COc1ccccc1NC(=O)N1CCN(CCn2c(C(F)(F)F)nc3cccnc32)CC1`: the RP-LC retention time amounted to 630 s.

In turn, `O=C(Nc1cnn(-c2ncc(N3CCCC3)cn2)c1)Nc1ccccc1C(F)(F)F` returned an RP-LC retention time of 850 s. As to `O=C(NC1CCCCCC1)C1CCCN(C(=O)c2ccc(Cl)cc2)C1` (stereo not given), the RP-LC retention time worked out at 904 s. `Fc1ccc(Nc2c(-c3ccccc3)nc3ccccn23)cc1` displayed an RP-LC retention time of 689 s.

With `CC1CCN(S(=O)(=O)c2ccc(-c3nnc(C(=O)NC4CCCCCC4)o3)cc2)CC1`, the RP-LC retention time was 1170 s. `Cc1noc(C2CN(C(=O)c3ccc(C#N)cc3)CC23CCOCC3)n1` (stereo not given) showed an RP-LC retention time of 642 s. For `COc1cc(CNC(=O)C2CCN(c3nc(C4CCC4)nc4csc(C)c34)CC2)cc(OC)c1`, the RP-LC retention time stood at 748 s. The compound `O=C(NC1CC1)[C@@H]1C[C@H](Oc2ccccc2)CN1C(=O)CCCc1c[nH]c2ccccc12` registered an RP-LC retention time of 834 s. In turn, `CC1Oc2ccc(-c3csc(NC(=O)C4CCCCC4)n3)cc2N(C)C1=O` (stereo not given) gave an RP-LC retention time of 1040 s.
